{
  "source": "patent US20150064221A1",
  "about": "“COMPOUNDS HAVING IMMUNOMUDULATOR ACTIVITY” (priority 2012, published 2015)",
  "format_in_all_cases": "in vivo",
  "key": {"[1]": {"assay": "Twenty-eight day toxicology study in dogs", "settings": "28 days, highest dose 100 mg/kg/day", "method": "Twenty-eight day toxicology studies were performed in both mice and dogs with increasing concentration to achieve toxicity. The following are the results of those studies."}, "spontaneous diabetes": {"system": "spontaneous diabetes", "assay": "Spontaneous diabetes in NOD mice", "settings": "i.p. 20 mg/kg 6 times a week, week 12 to 25", "method": "(A) Euglycaemic female 12 week old NOD mice were treated intraperitoneally with either 20 mg/kg bw VGX-1027 or its vehicle six times a week from the 12th until the 25th week of age. An additional control group of mice was left untreated. Each group consisted of 16 mice. The data are representative of two independent experiments that were merged because of interstudies variability lower than 10%. Statistical analysis was performed by Logrank (Mantel-Cox). (B) Plasma glucose levels in control CBA/H mice receiving STZ (40 mg/kg/day, for 5 consecutive days) in conjunction with 12 daily intreperitoneum injections of vehicle (STZ), or in mice treated with STZ and VGX-1027 given as a continuous 12-day treatment. 100 mg/kg bw of VGX-1027, administered orally from day −1 to day +10. Results from a representative experiment are presented as mean±SD for seven to eight mice per group. *p<0.05 refers to treatment with MLD-STZ."}, "[2]": {"assay": "Plasma pharmacokinetics after intraperitoneal administration", "settings": "mouse, ip, mice, i.p. 20 mg/kg", "method": "To determine the pharmacokinetic properties of VGX-1027, drug concentrations were analyzed in the plasma of mice. The drug was measured post intraperitoneum administration at 20 mg/kg […] in 500 mM Na2HPO4, which is a therapeutically active concentration. […] Based on the linear part of the pharmacokinetic profile, the t1/2 of VGX-1027 is approximately 90 minutes."}},
  "data": [
    {"smiles": "O=C(O)CC1CC(c2ccccc2)=NO1", "note": "(centres unmarked) [VGX-1027, 3-phenyl-4,5-dihydro-5-isoxazoleacetic acid]", "values": [
      {"measurement": "early deaths", "setting": "[1]", "value": 3},
      {"measurement": "mice developing TID", "setting": "spontaneous diabetes; by 25 weeks", "value": 31.3, "unit": "%"},
      {"measurement": "tolerability of prolonged treatment", "setting": "spontaneous diabetes", "value": "well tolerated"},
      {"measurement": "Tmax", "setting": "[2]; 20 mg/kg", "value": 2, "unit": "h"},
      {"measurement": "concentration at 6 h", "setting": "[2]; after 6 hours post injection, read-out: plasma drug concentration", "value": "< 10", "unit": "µg/mL"},
      {"measurement": "concentration at 30 min", "setting": "[2]; by 30 minutes post injection, read-out: plasma drug concentration", "value": "> 80", "unit": "µg/mL"},
      {"measurement": "half-life", "setting": "[2]; linear part of the profile", "value": "~1.5", "unit": "h"},
      {"measurement": "Cmax", "setting": "[2]; read-out: peak plasma concentration (Cmax)", "value": 130, "unit": "µg/mL"}
    ]}
  ]
}
